ChEMBL document CHEMBL3745645, “Synthesis, in vitro antitumor activity, dihydrofolate reductase inhibition, DNA intercalation and structure-activity relationship studies of 1,3,5-triazine analogues” (Bioorg Med Chem Lett, 2016)
The source made the active and inactive calls. The calls are words filed in the database; no cut-off is given here.

How the values were obtained:
[1] = Cytotoxicity against human Caki1 cells at 10 uM after 48 hrs by SRB assay; format: functional; conditions: CAKI-1, 48 h, read-out: GI
[2] = (§1) Cytotoxicity against human TK10 cells at 10 uM after 48 hrs by SRB assay; format: functional; conditions: TK-10, 48 h, read-out: GI
[3] = Cytotoxicity against human UO31 cells at 10 uM after 48 hrs by SRB assay; format: functional; conditions: UO-31, 48 h, read-out: GI
[4] = test system: MCF7; assay: Cytotoxicity against human MCF7 cells at 10 uM after 48 hrs by SRB assay; format: functional; conditions: MCF7, 48 h, read-out: GI
[5] = Cytotoxicity against human Hs 578T cells at 10 uM after 48 hrs by SRB assay; format: functional; conditions: read-out: GI
[6] = (§2) Cytotoxicity against human BT549 cells at 10 uM after 48 hrs by SRB assay; format: functional; conditions: BT-549, 48 h, read-out: GI
[7] = Cytotoxicity against human MOLT4 cells after 48 hrs by SRB assay; format: functional; conditions: MOLT-4, 48 h, read-out: LC50 (the source's name)
[8] = test system: A549; assay: Cytotoxicity against human A549 cells after 48 hrs by SRB assay; format: functional; conditions: A549, 48 h, pooled result: one value given for 8 cell lines, strains, targets or settings
[9] = Cytotoxicity against human COLO205 cells after 48 hrs by SRB assay; format: functional; conditions: COLO 205, 48 h, pooled result: one value given for 7 cell lines, strains, targets or settings
[10] = Cytotoxicity against human SF268 cells after 48 hrs by SRB assay; format: functional; conditions: SF-268, 48 h, pooled result: one value given for 6 cell lines, strains, targets or settings
[11] = test system: 786-0; assay: Cytotoxicity against human 786-0 cells after 48 hrs by SRB assay; format: functional; conditions: 786-0, 48 h, pooled result: one value given for 8 cell lines, strains, targets or settings
[12] = test system: Calf thymus DNA; assay: Binding affinity to calf thymus DNA by UV-vis spectrometric analysis; format: nucleic-acid assay; conditions: Bos taurus
[13] = test system: Calf thymus DNA; assay: Binding affinity to calf thymus DNA by fluorescence spectrophotometric analysis; format: nucleic-acid assay; conditions: Bos taurus
[14] = test system: Calf thymus DNA; assay: Binding affinity to calf thymus DNA assessed as melting temperature by spectrophotometric analysis (reference value: 60 degC); format: nucleic-acid assay; conditions: Bos taurus
[15] = test system: HL-60(TB); assay: Cytotoxicity against human HL-60(TB) cells at 10 uM after 48 hrs by SRB assay; format: functional
[16] = test system: K562; assay: Cytotoxicity against human K562 cells at 10 uM after 48 hrs by SRB assay; format: functional; conditions: K562, 48 h, read-out: GI
[17] = test system: RPMI-8226; assay: (§3) Cytotoxicity against human RPMI8226 cells at 10 uM after 48 hrs by SRB assay; format: functional
[18] = test system: A549; assay: Cytotoxicity against human A549 cells at 10 uM after 48 hrs by SRB assay; format: functional; conditions: A549, 48 h, read-out: GI
[19] = Cytotoxicity against human HOP62 cells at 10 uM after 48 hrs by SRB assay; format: functional; conditions: HOP-62, 48 h, read-out: GI
[20] = (§4) Cytotoxicity against human HCC2998 cells at 10 uM after 48 hrs by SRB assay; format: functional; conditions: HCC 2998, 48 h, read-out: GI
[21] = Cytotoxicity against human HCT116 cells at 10 uM after 48 hrs by SRB assay; format: functional; conditions: HCT-116, 48 h, read-out: GI
[22] = (§5) Cytotoxicity against human HCT15 cells at 10 uM after 48 hrs by SRB assay; format: functional; conditions: HCT-15, 48 h, read-out: GI
[23] = Cytotoxicity against human SF295 cells at 10 uM after 48 hrs by SRB assay; format: functional; conditions: SF-295, 48 h, read-out: GI
[24] = Cytotoxicity against human SNB19 cells at 10 uM after 48 hrs by SRB assay; format: functional; conditions: SNB-19, 48 h, read-out: GI
[25] = Cytotoxicity against human SNB75 cells at 10 uM after 48 hrs by SRB assay; format: functional; conditions: SNB-75, 48 h, read-out: GI
[26] = test system: M14; assay: Cytotoxicity against human M14 cells at 10 uM after 48 hrs by SRB assay; format: functional; conditions: M14, 48 h, read-out: GI
[27] = test system: MDA-MB-435; assay: Cytotoxicity against human MDA-MB-435 cells at 10 uM after 48 hrs by SRB assay; format: functional; conditions: MDA-MB-435, 48 h, read-out: GI
[28] = test system: SK-MEL-28; assay: Cytotoxicity against human SK-MEL-28 cells at 10 uM after 48 hrs by SRB assay; format: functional; conditions: SK-MEL-28, 48 h, read-out: GI
[29] = Cytotoxicity against human UACC257 cells at 10 uM after 48 hrs by SRB assay; format: functional; conditions: UACC-257, 48 h, read-out: GI
[30] = Cytotoxicity against human IGROV1 cells at 10 uM after 48 hrs by SRB assay; format: functional; conditions: IGROV-1, 48 h, read-out: GI
[31] = (§6) Cytotoxicity against human OVCAR4 cells at 10 uM after 48 hrs by SRB assay; format: functional; conditions: OVCAR-4, 48 h, read-out: GI
[32] = Cytotoxicity against human NCI-ADR-RES cells at 10 uM after 48 hrs by SRB assay; format: functional; conditions: read-out: GI
[33] = test system: 786-0; assay: Cytotoxicity against human 786-0 cells at 10 uM after 48 hrs by SRB assay; format: functional; conditions: 786-0, 48 h, read-out: GI
[34] = test system: ACHN; assay: Cytotoxicity against human ACHN cells at 10 uM after 48 hrs by SRB assay; format: functional; conditions: read-out: GI
[35] = test system: TK-10; assay: as §1; format: functional
[36] = test system: BT-549; assay: as §2; format: functional
[37] = as §3; format: functional; conditions: RPMI-8226, 48 h, read-out: GI
[38] = Cytotoxicity against human PC3 cells at 10 uM after 48 hrs by SRB assay; format: functional; conditions: PC-3, 48 h, read-out: GI
[39] = test system: NCI-H23; assay: Cytotoxicity against human NCI-H23 cells at 10 uM after 48 hrs by SRB assay; format: functional; conditions: NCI-H23, 48 h, read-out: GI
[40] = test system: HCC 2998; assay: as §4; format: functional
[41] = test system: HCT-15; assay: as §5; format: functional
[42] = Cytotoxicity against human UACC62 cells at 10 uM after 48 hrs by SRB assay; format: functional; conditions: UACC-62, 48 h, read-out: GI
[43] = test system: OVCAR-4; assay: as §6; format: functional

SMILES: COc1ccc(-c2nc(Nc3ccc(F)cc3)nc(Nc3ccc4c(c3)nc(C)n4Cc3ccccc3)n2)cc1
- inhibition of growth at 10 µM [1]: 16.8%
- inhibition of growth at 10 µM [2]: 25.1%
- inhibition of growth at 10 µM [3]: 70.7%
- inhibition of growth at 10 µM [4]: 77.4%
- inhibition of growth at 10 µM [5]: 45.5%
- inhibition of growth at 10 µM [6]: 29.3%
- CC50 [7]: > 100 µM
- GI50 [8]: 5.14 µM
- LC50 [8]: > 100 µM
- TGI [8]: 20.9 µM
- GI50 [9]: 3.52 µM
- LC50 [9]: 18.2 µM
- TGI [9]: 14.4 µM
- GI50 [10]: 4.98 µM
- LC50 (concentration killing 50% of cells) [10]: > 100 µM
- TGI [10]: > 100 µM
- GI50 [11]: 3.4 µM
- LC50 (concentration killing 50% of cells) [11]: > 100 µM
- TGI [11]: 27.7 µM
- Ka [12]: 2.96 ×10⁴ /M
- Ka [13]: 1.5 ×10⁴ /M
- Tm [14]: 67.5 °C
- growth inhibition (GI) [15]: Active
- inhibition of growth at 10 µM [16]: 83.4%
- growth inhibition (GI) [17]: Active
- inhibition of growth at 10 µM [18]: 68%
- inhibition of growth at 10 µM [19]: 46.7%
- inhibition of growth at 10 µM [20]: 54.5%
- inhibition of growth at 10 µM [21]: 76.6%
- inhibition of growth at 10 µM [22]: 66.6%
- inhibition of growth at 10 µM [23]: 51%
- inhibition of growth at 10 µM [24]: 39.3%
- inhibition of growth at 10 µM [25]: 32%
- inhibition of growth at 10 µM [26]: 61.1%
- inhibition of growth at 10 µM [27]: 65.9%
- inhibition of growth at 10 µM [28]: 43.5%
- inhibition of growth at 10 µM [29]: 56.2%
- inhibition of growth at 10 µM [30]: 63.6%
- inhibition of growth at 10 µM [31]: 57.4%
- inhibition of growth at 10 µM [32]: 73.4%
- inhibition of growth at 10 µM [33]: 53.3%
- inhibition of growth at 10 µM [34]: 62.9%

SMILES: Cc1nc2cc(Nc3nc(Nc4ccc(F)cc4)nc(-c4ccc(Cl)cc4)n3)ccc2n1Cc1ccccc1
- inhibition of growth at 10 µM [1]: 9.6%
- growth inhibition (GI) [35]: inactive
- inhibition of growth at 10 µM [3]: 55.5%
- inhibition of growth at 10 µM [4]: 57.6%
- inhibition of growth at 10 µM [5]: 24.6%
- growth inhibition (GI) [36]: inactive
- CC50 [7]: > 100 µM
- GI50 [8]: 8.37 µM
- LC50 [8]: 83.8 µM
- TGI [8]: 38.6 µM
- GI50 [9]: 4.97 µM
- LC50 [9]: > 100 µM
- TGI [9]: 59.8 µM
- GI50 [10]: 8.44 µM
- LC50 (concentration killing 50% of cells) [10]: 61.4 µM
- TGI [10]: 48.6 µM
- GI50 [11]: 11.5 µM
- LC50 (concentration killing 50% of cells) [11]: > 100 µM
- TGI [11]: 45.4 µM
- Ka [12]: 3.39 ×10⁴ /M
- Ka [13]: 1.97 ×10⁴ /M
- growth inhibition (GI) [15]: Active
- inhibition of growth at 10 µM [16]: 66.3%
- inhibition of growth at 10 µM [37]: 99.8%
- inhibition of growth at 10 µM [18]: 42.6%
- inhibition of growth at 10 µM [19]: 19.4%
- inhibition of growth at 10 µM [20]: 18.4%
- inhibition of growth at 10 µM [21]: 49.7%
- inhibition of growth at 10 µM [22]: 35.6%
- inhibition of growth at 10 µM [23]: 9.63%
- inhibition of growth at 10 µM [24]: 16.6%
- inhibition of growth at 10 µM [25]: 34.8%
- inhibition of growth at 10 µM [26]: 41.7%
- inhibition of growth at 10 µM [27]: 33.8%
- inhibition of growth at 10 µM [28]: 7.37%
- inhibition of growth at 10 µM [29]: 31.1%
- inhibition of growth at 10 µM [30]: 51.3%
- inhibition of growth at 10 µM [31]: 41.4%
- inhibition of growth at 10 µM [32]: 41%
- inhibition of growth at 10 µM [33]: 8.96%
- inhibition of growth at 10 µM [34]: 28.4%

SMILES: Cc1nc2ccc(Nc3nc(NCCN)nc(Nc4ccc(F)cc4)n3)cc2n1Cc1ccccc1
- inhibition of growth at 10 µM [1]: 1.79%
- inhibition of growth at 10 µM [2]: 26.1%
- inhibition of growth at 10 µM [3]: 13.7%
- inhibition of growth at 10 µM [38]: 26.9%
- inhibition of growth at 10 µM [4]: 39.1%
- inhibition of growth at 10 µM [5]: 20.5%
- inhibition of growth at 10 µM [6]: 17%
- inhibition of growth at 10 µM [16]: 61.3%
- inhibition of growth at 10 µM [37]: 46.2%
- inhibition of growth at 10 µM [18]: 13.2%
- inhibition of growth at 10 µM [19]: 20.6%
- inhibition of growth at 10 µM [39]: 10.4%
- growth inhibition (GI) [40]: inactive
- inhibition of growth at 10 µM [21]: 39.7%
- growth inhibition (GI) [41]: inactive
- inhibition of growth at 10 µM [23]: 11.6%
- inhibition of growth at 10 µM [24]: 10.1%
- inhibition of growth at 10 µM [25]: 20%
- inhibition of growth at 10 µM [26]: 16.4%
- inhibition of growth at 10 µM [27]: 9.38%
- inhibition of growth at 10 µM [29]: 15.9%
- inhibition of growth at 10 µM [42]: 9.33%
- inhibition of growth at 10 µM [30]: 0.38%
- growth inhibition (GI) [43]: inactive
- inhibition of growth at 10 µM [33]: 20.5%
- inhibition of growth at 10 µM [34]: 8.19%
